Reference: patent US20160318856A1, “Substituted Urea eIF2alpha Kinase Activators” (THE BRIGHAM AND WOMEN'S HOSPITAL, INC., priority 2013, published 2016)
Like-named read-outs stand apart in the source and are kept apart here. Values belong to the compound of their own block, whether it stands above or below them.

What was measured:
[1] = test system: eIF2α phosphorylation (eIF2•GTP•Met-tRNAi ternary complex; HRI activation); assay: surrogate dual luciferase eIF2α phosphorylation (ternary complex) assay; format: cell-based, human; conditions: for maximal fold induction: Homo sapiens, read-out: Emax (F/R)
Text: The dual luciferase expression vector and other plasmids used for these studies were previously described (see, for example, Ziegeler, G. et al. Journal of Biological Chemistry 2010, 285(20), 15408-19). The ternary complex assay, surrogate of eIF2α phosphorylation, has been described elsewhere (see, for example, Chen, T. et al. Nature Chemical Biology 2011, 7(9), 610-6). Briefly, the pBISA vector, which contains seven copies of the tetracycline-regulated transactivator response element (TRE), is flanked on both sides by minimal human cytomegalovirus (CMV) minimal promoters allowing bi-directional transcription and two MCSs (multiple cloning sites). Firefly and renilla luciferases were subcloned into MCS-I and MCS-II, respectively. This plasmid, designated pBISA-DL, transcribes two mRNAs that contain the 90 nucleotide plasmid derived 5′UTR (same sequence in both mRNAs), and the ORF encoding either firefly or renilla luciferase followed by a polyadenylation sequence. This plasmid was further modified by inserting the 5′UTR of ATF-4 mRNA into MCS-I in front of the firefly luciferase mRNA. Transcription from this unit generates an mRNA that contains the firefly luciferase ORF preceded by a 5′UTR composed of 90 nucleotides derived from the plasmid and 267 nucleotides derived from the 5′UTR of ATF-4 mRNA. Transcription from the other unit generates an mRNA that contains the renilla luciferase ORF proceeded only by the 90-nucleotide plasmid-derived sequence in the 5′UTR (pBISA-DL (ATF-4)) (see, for example, Chen, T. et al. Nature Chemical Biology 2011, 7(9), 610-6).
Cells expressing firefly and renilla luciferases were assayed with a dual glow luciferase assay kit, per manufacturer's instruction (Promega Inc., Madison, Wis.). The data calculations were carried out as the ratio of firefly to renilla luciferase signal.
A library of 1900 urea compounds was screened in the surrogate dual luciferase eIF2α phosphorylation (ternary complex) assay. This library was originally assembled and screened for inhibition of sEH by Hammock's group at UC-Davis (see, for example, Chen, T. et al. Nature Chem Biol 2011, 7, 610-616; Ziegeler, G et al. J Biol Chem 2010, 285, 15408-15419). We developed this assay in order to identify compounds that activate HRI, taking advantage of the fact that activated HRI phosphorylates eIF2α thereby reducing the amount of the eIF2•GTP•Met-tRNAi ternary complex that results in inhibition of translation of many mRNAs but paradoxically increases translation of some mRNAs that contain multiple upstream ORF (uORF) in their 5′ untranslated regions (UTRs). In our assay, firefly (F) luciferase mRNA is fused to 5′UTR of activating transcription factor 4 (ATF-4) mRNA that has multiple uORFs while renilla (R) luciferase mRNA is fused to a 5′UTR lacking any uORFs. Compounds that reduce the amount of the ternary complex, such as those activating HRI, would increase F luciferase expression while decreasing the R luciferase expression, resulting in an increased F/R luciferase ratio. To calculate the activity scores, the F/R ratios for every compound-treated wells were normalized to vehicle-treated (DMSO) wells that was arbitrarily set at 1 (F/R=1).

[2] = test system: CRL-2813 human melanoma cancer cells; assay: cell proliferation (SRB) assay, CRL-2813; format: cell-based; conditions: read-out: IC50
Method: Cells were seeded in 96-well plates and maintained for 5 days in the presence of 0.5 to 20 μM of individual compound, and cell proliferation was measured by the sulforhodamine B (SRB) assay as described previously (see, for example, Palakurthi, S. S. et al. Cancer Research 2000, 60(11), 2919-2925). Briefly, at the end of a 5-day treatment, cells were fixed in 10% cold trichloroacetic acid. Cell number was estimated by measuring the remaining bound dye of sulforhodamine B after washing. The percentage of growth was calculated by using the equation: 100×[(T−T0)/(C−T0)], where T and C represent the absorbance in treated and control cultures at Day 5, and T0 at time zero, respectively. If T is less than T0, cell death has occurred and can be calculated from 100×[(T−T0)/T0].

[3] = cell proliferation assay, Table 2, cell line not named
[4] = ternary complex assay, F/R normalized to vehicle (DMSO = 1)
[5] = cell proliferation assay (SRB, 5 days), cell line not named in Table 1, values equal CRL-2813 values of Tables 5/8
[6] = surrogate eIF2α phosphorylation assay, Table 4
[7] = Homo sapiens, CRL2813, cell proliferation assay, Table 4, cell line not named

SMILES: O=C(Nc1ccc(C(=O)O)cc1)NC1CCC(Oc2ccc(F)cc2)CC1 (stereo not drawn) [Compound I-12p]
Emax (F/R) [1, 4]: 3.49 F/R | IC50 [2, 5]: 11.6 ± 1.8 µM

SMILES: CSc1cccc(NC(=O)NC2CCC(Oc3ccc(F)cc3)CC2)c1 (stereo not drawn) [Compound I-10m]
Emax (F/R) [1, 4]: 6.67 F/R | IC50 [2, 5]: 11.1 ± 1.1 µM

SMILES: O=C(Nc1ccccc1[N+](=O)[O-])NC1CCC(Oc2ccc(F)cc2)CC1 (stereo not drawn) [Compound I-9o]
Emax (F/R) [1, 4]: 2.23 F/R | IC50 [2, 5]: 3.5 ± 0.3 µM

SMILES: O=C(Nc1cccc(C(F)(F)F)c1)NC1CCC(Oc2ccccc2C(F)(F)F)CC1 (stereo not drawn) [Compound I-19, 1-(4-(2-(Trifluoromethyl)phenoxy)cyclohexyl)-3-(3-(trifluoromethyl)phenyl)urea]
maximal fold induction ([1]; surrogate eIF2α phosphorylation assay, Table 3): 15.7 | IC50 ([2]; Homo sapiens, CRL2813, cell proliferation assay, Table 3, cell line not named, values equal CRL-2813 values of Table 8): 1.4 ± 0.3 µM

SMILES: COC(=O)c1ccccc1NC(=O)NC1CCC(Oc2ccc(F)cc2)CC1 (stereo not drawn) [Compound I-11o, methyl 2-(3-(4-(4-fluorophenoxy)cyclohexyl)ureido)benzoate]
maximal fold induction [1, 4]: 3.79 | IC50 ([2]; Homo sapiens, CRL2813, 120 h, cell proliferation assay (SRB, 5 days), cell line not named in Table 1, values equal CRL-2813 values of Tables 5/8): 14.5 ± 1.6 µM

SMILES: O=C(Nc1ccc([N+](=O)[O-])cc1)NC1CCC(Oc2ccc(F)cc2)CC1 (stereo not drawn) [Compound I-9p]
Emax (F/R) [1, 4]: 9.00 F/R | IC50 [2, 5]: 2.3 ± 0.1 µM

SMILES: COc1ccccc1NC(=O)NC1CCC(Oc2ccc(F)cc2)CC1 (stereo not drawn) [Compound I-8o]
Emax (F/R) [1, 4]: 1.51 F/R | IC50 [2, 5]: > 20 µM

SMILES: COc1cccc(NC(=O)NC2CCC(Oc3ccc(F)cc3)CC2)c1 (stereo not drawn) [Compound I-8m]
Emax (F/R) [1, 4]: 3.81 F/R | IC50 [2, 5]: 14 ± 1.3 µM

SMILES: COC1CCC(NC(=O)Nc2cccc(C(F)(F)F)c2)CC1 (stereo not drawn) [III-3, 1-(4-Methoxycyclohexyl)-3-(3-(trifluoromethyl)phenyl)urea]
maximal fold induction [1, 6]: 1.16 | IC50 [2, 7]: > 20 µM

SMILES: Cc1cccc(NC(=O)NC2CCC(Oc3ccc(F)cc3)CC2)c1 (stereo not drawn) [Compound I-7m]
Emax (F/R) [1, 4]: 4.73 F/R | IC50 [2, 5]: 14.4 ± 0.5 µM

SMILES: CSc1ccccc1NC(=O)NC1CCC(Oc2ccc(F)cc2)CC1 (stereo not drawn) [Compound I-10o]
Emax (F/R) [1, 4]: 0.92 F/R | IC50 [2, 5]: > 20 µM

SMILES: O=C(Nc1cccc(C(F)(F)F)c1)NC1CCC(O)CC1 (stereo not drawn) [III-2, 1-(4-Hydroxycyclohexyl)-3-(3-(trifluoromethyl)phenyl)urea]
maximal fold induction [1, 6]: 0.89 | IC50 [2, 7]: > 20 µM

SMILES: O=C(Nc1cccc([N+](=O)[O-])c1)NC1CCC(Oc2ccc(F)cc2)CC1 (stereo not drawn) [Compound I-9m]
Emax (F/R) [1, 4]: 7.47 F/R | IC50 [2, 5]: 6.7 ± 0.7 µM

SMILES: O=C(Nc1ccccc1Br)NC1CCC(Oc2ccc(F)cc2)CC1 (stereo not drawn) [Compound I-3o]
Emax (F/R) [1, 4]: 5.23 F/R | IC50 [2, 5]: 7.7 ± 0.1 µM

More lines, now with the values ahead:

Emax (F/R) ([1]; 7.5 μM compound): 0.84 F/R | Emax (F/R) ([1]; 15 μM compound): 0.97 F/R | Emax (F/R) ([1]; 30 μM compound): 0.74 F/R | IC50 [2, 3]: > 20 µM
SMILES: COc1cccc(NC(=O)N[C@H]2CC[C@H](OCc3c(F)cccc3F)CC2)c1 [II-8m]

Emax (F/R) ([1]; 7.5 μM compound): 0.96 F/R | Emax (F/R) ([1]; 15 μM compound): 0.90 F/R | Emax (F/R) ([1]; 30 μM compound): 0.74 F/R | IC50 [2, 3]: > 20 µM
SMILES: O=C(Nc1ccccc1[N+](=O)[O-])N[C@H]1CC[C@H](OCc2c(F)cccc2F)CC1 [II-9o]

Emax (F/R) ([1]; 7.5 μM compound): 0.87 F/R | Emax (F/R) ([1]; 15 μM compound): 0.83 F/R | Emax (F/R) ([1]; 30 μM compound): 0.83 F/R | IC50 [2, 3]: > 20 µM
SMILES: O=C(Nc1ccc([N+](=O)[O-])cc1)N[C@H]1CC[C@H](OCc2c(F)cccc2F)CC1 [II-9p]

Emax (F/R) [1, 4]: 1.65 F/R | IC50 [2, 5]: > 20 µM
SMILES: O=C(Nc1ccc(Cl)cc1)NC1CCC(Oc2ccc(F)cc2)CC1 (stereo not drawn) [Compound I-2p]

Emax (F/R) ([1]; 7.5 μM compound): 1.13 F/R | Emax (F/R) ([1]; 15 μM compound): 1.15 F/R | Emax (F/R) ([1]; 30 μM compound): 1.11 F/R | IC50 [2, 3]: > 20 µM
SMILES: O=C(Nc1cccc(C(F)(F)F)c1)N[C@H]1CC[C@H](OCc2c(F)cccc2F)CC1 [II-5m]

Emax (F/R) [1, 4]: 13.99 F/R | IC50 [2, 5]: 2.8 ± 0.1 µM
SMILES: O=C(Nc1ccc(C(F)(F)F)cc1)NC1CCC(Oc2ccc(F)cc2)CC1 (stereo not drawn) [Compound I-5p]

Emax (F/R) ([1]; 7.5 μM compound): 0.81 F/R | Emax (F/R) ([1]; 15 μM compound): 0.80 F/R | Emax (F/R) ([1]; 30 μM compound): 0.98 F/R | IC50 [2, 3]: > 20 µM
SMILES: O=C(Nc1ccc(OC(F)(F)F)cc1)N[C@H]1CC[C@H](OCc2c(F)cccc2F)CC1 [II-6p]

Emax (F/R) ([1]; 7.5 μM compound): 0.72 F/R | Emax (F/R) ([1]; 15 μM compound): 0.77 F/R | Emax (F/R) ([1]; 30 μM compound): 0.67 F/R | IC50 [2, 3]: > 20 µM
SMILES: O=C(Nc1cccc(F)c1)N[C@H]1CC[C@H](OCc2c(F)cccc2F)CC1 [II-1m]

Emax (F/R) ([1]; 7.5 μM compound): 0.96 F/R | Emax (F/R) ([1]; 15 μM compound): 0.99 F/R | Emax (F/R) ([1]; 30 μM compound): 0.96 F/R | IC50 [2, 3]: > 20 µM
SMILES: O=C(Nc1ccccc1Br)N[C@H]1CC[C@H](OCc2c(F)cccc2F)CC1 [II-3o]

Emax (F/R) [1, 4]: 3.77 F/R | IC50 [2, 5]: 10.2 ± 1.5 µM
SMILES: O=C(Nc1ccc(I)cc1)NC1CCC(Oc2ccc(F)cc2)CC1 (stereo not drawn) [Compound I-4p]

Emax (F/R) ([1]; 7.5 μM compound): 1.01 F/R | Emax (F/R) ([1]; 15 μM compound): 0.73 F/R | Emax (F/R) ([1]; 30 μM compound): 1.06 F/R | IC50 [2, 3]: > 20 µM
SMILES: CSc1cccc(NC(=O)N[C@H]2CC[C@H](OCc3c(F)cccc3F)CC2)c1 [II-10m]

Emax (F/R) ([1]; 7.5 μM compound): 0.79 F/R | Emax (F/R) ([1]; 15 μM compound): 0.78 F/R | Emax (F/R) ([1]; 30 μM compound): 0.75 F/R | IC50 [2, 3]: > 20 µM
SMILES: O=C(Nc1cccc(Cl)c1)N[C@H]1CC[C@H](OCc2c(F)cccc2F)CC1 [II-2m]

Emax (F/R) [1, 4]: 2.10 F/R | IC50 [2, 5]: 17.5 ± 1.1 µM
SMILES: O=C(Nc1ccccc1F)NC1CCC(Oc2ccc(F)cc2)CC1 (stereo not drawn) [Compound I-1o]

Emax (F/R) ([1]; 7.5 μM compound): 0.94 F/R | Emax (F/R) ([1]; 15 μM compound): 0.98 F/R | Emax (F/R) ([1]; 30 μM compound): 1.07 F/R | IC50 [2, 3]: > 20 µM
SMILES: CSc1ccc(NC(=O)N[C@H]2CC[C@H](OCc3c(F)cccc3F)CC2)cc1 [II-10p]

Emax (F/R) [1, 4]: 0.83 F/R | IC50 [2, 5]: > 20 µM
SMILES: COc1ccc(NC(=O)NC2CCC(Oc3ccc(F)cc3)CC2)cc1 (stereo not drawn) [Compound I-8p]

Emax (F/R) [1, 4]: 1.56 F/R | IC50 [2, 5]: > 20 µM
SMILES: O=C(Nc1ccccc1C(F)(F)F)NC1CCC(Oc2ccc(F)cc2)CC1 (stereo not drawn) [Compound I-5o]

Emax (F/R) ([1]; 7.5 μM compound): 0.78 F/R | Emax (F/R) ([1]; 15 μM compound): 0.79 F/R | Emax (F/R) ([1]; 30 μM compound): 0.83 F/R | IC50 [2, 3]: > 20 µM
SMILES: Cc1ccccc1NC(=O)N[C@H]1CC[C@H](OCc2c(F)cccc2F)CC1 [II-7o]
